Patent US20250084095A1, “Aminopyrimidine Derivatives as Cyclin-Dependent Kinase Inhibitors” (Accutar Biotechnology Inc., priority 2023, published 2025)
pIC50: −log10 of the molar value.

Columns and labels:
CDK1-CYCLIN B = CDK1-CYCLIN B (Homo sapiens (Human), UniProt P06493); test: CDK protein kinase inhibition by the ADP-Glo Assay, CDK1-CYCLIN B; type: biochemical; conditions: 1000 μM ATP
Procedure: (§1) This ADP-Glo assay measures ADP formed from a kinase reaction and indirectly quantifies the phosphorylation of peptide substrates by the CDK/cyclin protein complexes. The typical assays were carried out in Nanosyn by combining kinase/cyclin complexes, substrates, compounds, and cofactors (ATP and Mg2+) in a well of a 384-well microtiter plate (Coming 3824) and incubating at 22° C. (Table 4). At the end of the incubation, the reaction is quenched, and conversion is detected by luminescence using the Promega ADP-Glo™ Kinase Assay kit (catalog #V9102). Briefly, 5 μL of 1× enzyme and substrate buffer (or control), 50 nL of 100× compound, and 0.5 μL of 10 mM ATP were sequentially added to a well of a 384-well plate.
(§2) The Final assay buffer mixture contains: 100 mM HEPES, pH 7.5, 0.1% BSA, 0.01% Triton X-100, 1 mM DTT, 5 mM MgCl2, 10 μM Sodium Orthovanadate, 10 μM Beta-Glycerophosphate, 1000 μM Ultra Pure ATP (provided in the Promega ADP-Glo™ Kinase Assay kit), and 1% DMSO (from compound).
(§3) Upon completion, 5 μL of the ADP Glo reagent was added to each well and the plate was further incubated at room temperature for 45 min. 10 μL of the Kinase Detection Reagent was subsequently added to each well. After 10 min of incubation, the plate was read and analyzed on the BioTek Synergy microplate reader using BioTek Gen5 software.

CDK4-CYCLIN D1 = CDK4-CYCLIN D1 (Homo sapiens (Human), UniProt P11802); test: CDK protein kinase inhibition by the ADP-Glo Assay, CDK4-CYCLIN D1; type: biochemical; conditions: for pIC50: ADP-Glo, 1000 μM ATP; for Selectivity CDK4 vs CDK1 / Selectivity CDK4 vs CDK2 / Selectivity CDK4 vs CDK6 / Selectivity CDK4 vs CDK9: ratio of recombinant kinase IC50s; for Selectivity CDK4 vs CDK1: CDK1 over CDK4; for Selectivity CDK4 vs CDK2: CDK2 over CDK4; for Selectivity CDK4 vs CDK6: CDK6 over CDK4; for Selectivity CDK4 vs CDK9: CDK9 over CDK4
Chain of CDK4-CYCLIN D1 (P11802 whole entry): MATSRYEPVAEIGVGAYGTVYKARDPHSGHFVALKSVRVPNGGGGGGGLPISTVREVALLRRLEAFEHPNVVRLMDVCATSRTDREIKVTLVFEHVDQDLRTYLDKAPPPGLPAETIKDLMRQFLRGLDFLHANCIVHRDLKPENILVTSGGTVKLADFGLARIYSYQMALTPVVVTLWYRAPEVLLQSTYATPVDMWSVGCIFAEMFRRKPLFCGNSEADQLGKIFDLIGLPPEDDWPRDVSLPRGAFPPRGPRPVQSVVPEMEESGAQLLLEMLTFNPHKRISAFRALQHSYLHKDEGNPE
Chain of CDK4-CYCLIN D1 (P24385 whole entry partner): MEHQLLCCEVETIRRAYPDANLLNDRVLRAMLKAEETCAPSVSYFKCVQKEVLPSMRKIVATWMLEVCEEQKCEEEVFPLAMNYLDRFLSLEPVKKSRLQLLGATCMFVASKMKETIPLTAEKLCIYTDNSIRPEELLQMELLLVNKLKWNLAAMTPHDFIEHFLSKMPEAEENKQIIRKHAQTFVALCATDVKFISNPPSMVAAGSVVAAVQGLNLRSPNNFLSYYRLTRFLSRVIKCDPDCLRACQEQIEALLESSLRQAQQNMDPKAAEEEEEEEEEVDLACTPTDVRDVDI
Procedure: as §1, §2, §3

CDK6-CYCLIN D3 = CDK6-CYCLIN D3 (Homo sapiens (Human), UniProt Q00534); test: CDK protein kinase inhibition by the ADP-Glo Assay, CDK6-CYCLIN D3; type: biochemical; conditions: 1000 μM ATP
Chain of CDK6-CYCLIN D3 (Q00534 whole entry): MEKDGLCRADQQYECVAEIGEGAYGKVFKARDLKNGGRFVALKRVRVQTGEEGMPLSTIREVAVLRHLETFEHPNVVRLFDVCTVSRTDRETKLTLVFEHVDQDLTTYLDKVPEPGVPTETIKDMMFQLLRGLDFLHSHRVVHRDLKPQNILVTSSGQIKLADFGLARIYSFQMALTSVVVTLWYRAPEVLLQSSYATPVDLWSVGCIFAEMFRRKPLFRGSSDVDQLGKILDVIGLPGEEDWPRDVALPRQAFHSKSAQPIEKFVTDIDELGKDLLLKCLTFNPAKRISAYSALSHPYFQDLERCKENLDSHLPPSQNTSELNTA
Chain of CDK6-CYCLIN D3 (P30281 whole entry partner): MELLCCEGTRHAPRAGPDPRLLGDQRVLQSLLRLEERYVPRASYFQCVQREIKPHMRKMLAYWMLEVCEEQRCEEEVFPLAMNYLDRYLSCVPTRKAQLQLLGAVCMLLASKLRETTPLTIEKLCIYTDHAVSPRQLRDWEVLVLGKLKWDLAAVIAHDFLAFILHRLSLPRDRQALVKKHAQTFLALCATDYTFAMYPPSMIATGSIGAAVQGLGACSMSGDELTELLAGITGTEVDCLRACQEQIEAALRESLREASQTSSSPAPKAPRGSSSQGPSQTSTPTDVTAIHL
Procedure: as §1, §2, §3

CDK2-CYCLIN E1 = CDK2-CYCLIN E1 (Homo sapiens (Human), UniProt P24941); test: CDK protein kinase inhibition by the ADP-Glo Assay, CDK2-CYCLIN E1; type: biochemical; conditions: 1000 μM ATP, read-out: CDK2-CYCLIN E, IC50
Procedure: as §1, §2, §3

CDK9-CYCLIN T1 = CDK9-CYCLIN T1 (Homo sapiens (Human), UniProt P50750); test: CDK protein kinase inhibition by the ADP-Glo Assay, CDK9-CYCLIN T1; type: biochemical; conditions: 1000 μM ATP
Chain of CDK9-CYCLIN T1 (P50750 whole entry): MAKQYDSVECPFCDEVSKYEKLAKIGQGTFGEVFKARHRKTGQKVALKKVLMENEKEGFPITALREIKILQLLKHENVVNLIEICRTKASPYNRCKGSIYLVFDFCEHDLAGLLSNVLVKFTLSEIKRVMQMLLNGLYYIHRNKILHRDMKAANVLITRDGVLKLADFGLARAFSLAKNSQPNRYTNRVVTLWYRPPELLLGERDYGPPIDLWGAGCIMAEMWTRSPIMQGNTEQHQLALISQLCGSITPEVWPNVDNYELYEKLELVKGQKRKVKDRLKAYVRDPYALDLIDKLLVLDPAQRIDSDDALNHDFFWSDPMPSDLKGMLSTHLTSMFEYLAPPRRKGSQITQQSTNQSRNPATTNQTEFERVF
Chain of CDK9-CYCLIN T1 (O60563 whole entry partner): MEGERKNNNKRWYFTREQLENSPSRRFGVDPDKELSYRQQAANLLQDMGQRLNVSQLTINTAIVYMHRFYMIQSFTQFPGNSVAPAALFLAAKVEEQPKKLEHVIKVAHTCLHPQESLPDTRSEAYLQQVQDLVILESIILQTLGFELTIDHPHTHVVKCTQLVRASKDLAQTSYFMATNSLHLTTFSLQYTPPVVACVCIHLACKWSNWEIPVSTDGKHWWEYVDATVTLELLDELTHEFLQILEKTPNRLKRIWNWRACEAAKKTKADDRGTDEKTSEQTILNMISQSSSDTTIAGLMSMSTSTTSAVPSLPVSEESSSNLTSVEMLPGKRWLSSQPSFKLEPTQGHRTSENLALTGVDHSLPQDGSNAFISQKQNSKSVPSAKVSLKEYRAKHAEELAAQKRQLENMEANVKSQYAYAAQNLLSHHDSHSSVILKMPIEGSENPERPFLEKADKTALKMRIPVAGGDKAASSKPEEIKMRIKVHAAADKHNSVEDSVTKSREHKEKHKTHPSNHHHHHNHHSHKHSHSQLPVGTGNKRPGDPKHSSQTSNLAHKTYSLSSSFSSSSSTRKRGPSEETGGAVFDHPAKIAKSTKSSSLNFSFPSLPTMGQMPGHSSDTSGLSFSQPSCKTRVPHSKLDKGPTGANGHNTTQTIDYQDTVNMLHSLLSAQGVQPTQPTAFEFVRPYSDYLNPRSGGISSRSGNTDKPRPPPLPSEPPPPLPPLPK
Procedure: as §1, §2, §3

in vitro = conditions: both, human, hepatocytes
Procedure: (§4) Human hepatocyte stability assay was performed at Pharmaron. Human hepatocytes from mixed genders were purchased from BioIVT (Product #X008001). Compounds and positive control were incubated with human hepatocytes. Verapmil was used as a positive control. […] An aliquot of 100 μL of the supernatant was diluted by 100 μL ultra-pure water, and the mixture was used for LC/MS/MS analysis. The percent of parent remaining, intrinsic clearance (CLint) and tr2 were calculated.

[1] = Human hepatocyte stability assay; conditions: human hepatocytes, 1 μM, 120 min incubation
Procedure: as §4

Chain of CDK1-CYCLIN B (P06493 whole entry): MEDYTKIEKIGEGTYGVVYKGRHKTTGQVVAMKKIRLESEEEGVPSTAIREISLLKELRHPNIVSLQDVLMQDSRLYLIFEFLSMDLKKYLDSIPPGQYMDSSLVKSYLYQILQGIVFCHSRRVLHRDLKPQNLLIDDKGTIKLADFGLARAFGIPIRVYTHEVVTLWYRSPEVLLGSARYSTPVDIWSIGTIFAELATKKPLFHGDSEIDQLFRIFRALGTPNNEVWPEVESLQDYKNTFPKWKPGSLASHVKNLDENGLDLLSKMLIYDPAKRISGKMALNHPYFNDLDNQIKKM
Chain of CDK1-CYCLIN B (P14635 whole entry partner): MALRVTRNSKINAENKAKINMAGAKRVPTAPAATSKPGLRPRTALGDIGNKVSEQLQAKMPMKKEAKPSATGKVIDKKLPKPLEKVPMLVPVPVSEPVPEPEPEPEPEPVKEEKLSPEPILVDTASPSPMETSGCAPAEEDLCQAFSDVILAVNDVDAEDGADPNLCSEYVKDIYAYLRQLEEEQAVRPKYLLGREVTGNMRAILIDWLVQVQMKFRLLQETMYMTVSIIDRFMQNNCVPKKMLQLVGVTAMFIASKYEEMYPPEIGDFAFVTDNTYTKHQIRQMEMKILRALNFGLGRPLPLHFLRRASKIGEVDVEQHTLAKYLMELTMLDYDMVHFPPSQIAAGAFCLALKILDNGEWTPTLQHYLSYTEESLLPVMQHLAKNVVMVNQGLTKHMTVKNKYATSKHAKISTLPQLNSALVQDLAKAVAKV

Selectivity for CDK4 over CDK1, CDK2, CDK6 and CDK9 compared with the reference compound (CDK4-CYCLIN D1; versus PF-07220060)	Hepatic Extraction Ratio (ER) (both, human, 1 μM)	Predicted Hepatic CLH (both, human, 1 μM) [mL/min/kg]	CLint scaled at 1 μM (in vitro) [mL/min/kg]	half-life at 1 μM (in vitro) [h]	Structure (SMILES)	pIC50 (CDK1-CYCLIN B)	pIC50 (CDK4-CYCLIN D1)	Selectivity CDK4 vs CDK1 (CDK4-CYCLIN D1)	Selectivity CDK4 vs CDK2 (CDK4-CYCLIN D1)	Selectivity CDK4 vs CDK6 (CDK4-CYCLIN D1)	Selectivity CDK4 vs CDK9 (CDK4-CYCLIN D1)	pIC50 (CDK6-CYCLIN D3)	pIC50 (CDK2-CYCLIN E1)	In vitro CLint (μL/min/10^6 cell) (human, hepatocytes)	pIC50 (CDK9-CYCLIN T1)	t1/2 [1] [h]	Scaled-up CLint (hepatocytes) [mL/min/kg]
much better selectivity	0.23	4.9	6.4	9.26	CC(C)n1c(C(C)(C)O)nc2c(F)cc(-c3nc(N[C@@H]4C[C@H]5CO[C@H](O5)[C@H]4O)ncc3Cl)cc21 [Compound 1, (1S,3R,4S,5R)-3-((5-chloro-4-(4-fluoro-2-(2-hydroxypropan-2-yl)-1-isopropyl-1H-benzo[d]imidazol-6-yl)pyrimidin-2-yl)amino)-6,8-dioxabicyclo[3.2.1]octan-4-ol]	4.58	8.50	8,317	>9,524	20	1,549	7.20	< 4.52	2.5	5.31		
					CC(C)n1c(C(C)(C)O)nc2c(F)cc(-c3nc(N[C@@H]4CCOC[C@H]4O)ncc3Cl)cc21 [Reference Compound, PF-07220060, reference compound]	5.07	8.36	1,966	>6,865	18	430	7.12	< 4.52	11.3	5.73	2.057	28.6
